Reference: patent US7476383B2, “Antibody selective for DR4 and uses thereof” (The UAB Research Foundation, priority 2000, dated 2009)

B1: humanized TRA-8: humanized TRA-8, cotransfection of pHB14-1 and pSR/M2-1 (H2 type heavy chain, LM2 light chain) (antibody)
VH: EVMLVESGGGLVQPGGSLRLSCAASGFTFSSYVMSWVRQAPGKGLEWVATISSGGSYTYYPDSVKGRFTISRDNAKNTLYLQMNSLRAEDTAVYYCARRGDSMITTDYWGQGTLVTVSS
light: DIVMTQSPSSLSASVGDRVTITCKASQDVGTAVAWYQQKPGKAPKLLIYWASTRHTGVPSRFSGSGSGTDFTLTISSLQPEDFATYYCQQYSSYRTFGQGTKVEIKRTVAAPSVFIFPPSDEQLKSGTASVVCLLNNFYPREAKVQWKVDNALQSGNSQESVTEQDSKDSTYSLSSTLTLSKADYEKHKVYACEVTHQGLSSPVTKSFNRGEC

Experiments:
[1] = tested on: Human prostate cancer cell line PC-3; experiment: Combination study with Paclitaxel, XTT; assay type: cell-based; details: 24 h
Method: Human prostate cancer cell line PC-3 is obtained from American Tissue Culture Collection (ATCC) and maintained in F-12K Nutrient Mixture (21127-022, Gibco BRL) containing 10% fetal bovine serum (FBS, Hyclone), 1% L-Glutamine-200 mM (25030-149, Gibco BRL) and 0.5% Penicillin Streptomycin Solution (P-7539, Sigma). RPMI1640 medium (MED-008, IWAKI) supplemented with 10% FBS and 0.5% Penicillin Streptomycin Solution is used in the following experiment. Exponentially growing PC-3 cells are collected by trypsinization and washed twice with fresh medium. The cells are then counted, resuspended in fresh medium at a density of 5×10^4 cells/ml and distributed in triplicate into flat-bottomed 96 well plates (3598, Coming-Coster) in a total volume of 100 μl/well one day before the start of the experiment. A representative anti-cancer drug, Paclitaxel (169-18611, Wako) dissolved in dimethylsulfoxide (10 mg/ml) is diluted in fresh medium and then added to the 96-well plates containing the cells at 50 μl/well. The final concentrations of dimethylsulfoxide are less than 0.1%. […] After incubation for a further 24 hr, 50 μl of Minimum Essential Medium (11095-098, Gibco BRL) containing 1 mg/ml of XTT and […] of PMS is added to the wells and the plates are incubated for 6 hr. OD450 is then measured by SPECTRA MAX 250 (Molecular Devices) and the cell viability is calculated as follows.

[2] = tested on: 2LMP human breast cancer xenografts; experiment: 2LMP breast cancer xenografts in athymic nude mice; assay type: in vivo
Method: Nude mice were inoculated s.c. with the human breast cancer cell line, 2LMP. Treatment with i.p. doses of 200 μg of 2E12 occurred on days 7, 10, 14, 17, 21, and 24 after tumor cell injection. Animals received i.v. adriamycin (doxorubicin) (6 mg/kg) on days 8, 12, and 16.
Athymic nude mice were injected s.c. with 3×10^7 2LMP cells. […] The growth of tumors was monitored over time. […] Tumor size and regression rates were determined.
Data from 6 independent experiments were analyzed by individual experiment. Treatment combinations were compared with respect to in vivo anti-tumor efficacy, i.e., inhibition of tumor growth, which was measured as three endpoints; extension of tumor doubling times, percentage of tumor regressions, and growth rates over time. The actual number of days at which the tumor doubled in surface area (product of two diameters) relative to baseline on day 7 after tumor cell injection was used in the doubling time analysis. The nonparametric Kruskal-Wallis test was used for median tumor doubling time comparisons between treatments. Fisher's exact test was used to compare the proportions of tumor regressions and relapse-free regressions across treatment groups. To determine if any combination therapy produced significant synergistic inhibition of tumor growth, i.e., more than additive, the growth curves from the serial area measurements were compared using a linear mixed model approach over the first 3 weeks after start of therapy (Lindsey, J. K. Models for Repeated Measurements, pp. 100-142, Oxford, 1993). To test for synergistic effects of the combination therapies, an interaction term was included in the model. If the interaction term was significant and the effect was inhibition of growth at a rate greater than additive then the interaction was considered synergistic.
A total of 166 animals, 10 treatment groups, and 6 independent experiments were included in the aggregate analysis. Treatment combinations were compared with respect to in vivo anti-tumor efficacy. The median tumor doubling times were analyzed using the Kruskal-Wallis test and Fisher's exact test was used to compare the proportions of tumor regressions and relapse-free regressions across treatment groups.

2LMP xenografts = experiment: TUNEL analysis of apoptosis in xenografts; assay type: in vivo, athymic nude mice; details: day 14; untreated 1%
Method: One group of mice was untreated. The xeno grafts were dissected for the study of apoptosis on day 14 after tumor cell injection. The reason for the substantial reduction in treatment intensity compared to our standard treatment protocol was to allow adequate tumor tissue for analysis on day 14. Tunel assay for apoptosis in tumor xenografts was performed as follows. Five-micron paraffin sections of tissue were mounted on Superfrost/Plus slides and heated at 58° C. for 1 h. Tissue sections were deparaffinized in three changes of xylene and rehydrated with one change of absolute ethanol, 95% ethanol, and 70% ethanol, each in 5-min increments. Then, the sections were placed in Tris-buffered saline (0.5M Tris base, 0.15 M NaCl, 0.0002% Triton X-100, pH 7.6). Apoptotic nuclei were detected using an Apop Tag Peroxidase kit (Intergen, Purchase, N.Y.). Proteinase K (20 μg/ml in distilled deionized H2O) was added to the tissue specimens and incubated at room temperature for 15 min. Endogenous peroxidases were quenched with an aqueous solution of 3% hydrogen peroxide for 5 min. […] Approximately 10 random fields were evaluated for percentage of Tunel stained and percentage of intensely stained apoptotic bodies throughout the tissue.

Jurkat cells = experiment: Apoptosis-inducing activity of humanized antibody, XTT; assay type: cell-based, human; details: 12 hours
Method: Jurkat cells cultured in RPM11640 medium with 10% FCS (Gibco BRL) at 37° C. for 3 days in the presence of 5% CO2 are dispensed into each well of a 96-well microplate (Sumitomo Bakelite) at 50 μl per well. […] Each of the solutions of the expression products thus adjusted to 100 ng/ml is used to produce serial dilutions by repeating serial 2-fold dilution with RPM1640 containing 10% FCS. […] After reacting at 37° C. for 12 hours, 50 μl of 25 μM PMS (phenazine methosulfate; Sigma Chemical Co.) containing 1 mg/ml XTT (2,3-bis[2-methoxy-4-nitro-5-sulfophenyl]-2H-tetrazolium-5-carboxyaniride inner salt; Sigma Chemical Co.) is added (final concentrations of 250 μg/ml for XTT and 5 μM for PMS). After incubating for 3 hours, the absorbance at 450 nm of each well is measured to calculate the cell viability by using the reduction ability of mitochondria as the index.
The viability of the cells in each well is calculated according to the following formula: Viability (%)=100×(a−b)/(c−b) wherein “a” is the measurement of a test well, “b” is the measurement of a well with no cells, and “c” is the measurement of a well with no antibody added.
Jurkat cells cultured in RPMI1640 medium with 10% FCS (Gibco BRL) at 37° C. for 3 days in the presence of 5% CO2 are dispensed into each well of a 96-well microplate (Sumitomo Bakelite) at 50 μl per well. […]

[3] = aggregate, number of animals (%)

Molecule | viability at 0.0001 µg/mL [1] [%] | Complete Regressions No relapse (%) [2, 3] | Complete Regressions Total (%) [2, 3] | complete regressions of tumor ([2]; individual experiments (FIG. 25-27), animals) | intense TUNEL stained cells (2LMP xenografts) [%] | apoptosis-inducing activity (Jurkat cells)
CC(=O)O[C@H]1C(=O)[C@@]2(C)[C@H]([C@H](OC(=O)c3ccccc3)[C@]3(O)C[C@H](OC(=O)[C@H](O)[C@@H](NC(=O)c4ccccc4)c4ccccc4)C(C)=C1C3(C)C)[C@]1(OC(C)=O)CO[C@@H]1C[C@@H]2O [Paclitaxel] | > 40 | 0 | 0 | none | 2 | 
B1 |  |  |  |  |  | induce apoptosis
